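Values below derive from 48-hour exposures of cells grown in 96-well plates, with endpoints linearly interpolated between the two concentrations bracketing the appropriate inhibition level. Abbreviation: GI50, concentration required for 50% inhibition of growth.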 The source made the active and inactive calls. Cut-off read from the data, not from the text of the source: active = GI50 up to about 1.1 µM and inactive = higher.
How the values were obtained:
Experiment in all cases: DTP human tumour cell line panel, 48 h
NCI-H522 = test system: NCI-H522
U-251 = test system: U-251
HL-60 = test system: HL-60
UACC-257 = test system: UACC-257
UACC-62 = test system: UACC-62
A498 = test system: A498
HT-29 = test system: HT-29
SF-268 = test system: SF-268
HCT-15 = test system: HCT-15
CAKI-1 = test system: CAKI-1
OVCAR-4 = test system: OVCAR-4
SF-539 = test system: SF-539
COLO 205 = test system: COLO 205
SK-MEL-2 = test system: SK-MEL-2
RXF 393 = test system: RXF 393

| SMILES | GI50 (NCI-H522) | GI50 (U-251) | GI50 (HL-60) | GI50 (UACC-257) | GI50 (UACC-62) | GI50 (A498) | GI50 (HT-29) | GI50 (SF-268) | GI50 (HCT-15) | GI50 (CAKI-1) | GI50 (OVCAR-4) | GI50 (SF-539) | GI50 (COLO 205) | GI50 (SK-MEL-2) | GI50 (RXF 393) |
| --- | --- | --- | --- | --- | --- | --- | --- | --- | --- | --- | --- | --- | --- | --- | --- |
| C/C(=N\NS(=O)(=O)c1ccccc1)c1ccc[n+]([O-])n1 | 25.6 µM (inactive) | > 100 µM (inactive) | 21.8 µM (inactive) | 58.7 µM (inactive) | > 100 µM (inactive) | > 100 µM (inactive) | > 100 µM (inactive) | > 100 µM (inactive) | > 100 µM | 34.1 µM (inactive) | 49.3 µM (inactive) | > 100 µM (inactive) | – | – | – |
| C=CCc1cc(OC)c(O)c(C(=O)/C=C/c2ccc(OC)c(OC)c2)c1 | 1.86 µM (inactive) | 17.4 µM (inactive) | 11.6 µM (inactive) | 19.3 µM (inactive) | 23.8 µM (inactive) | 17.9 µM (inactive) | 16.4 µM (inactive) | 24.4 µM (inactive) | – | 22.1 µM (inactive) | 16.2 µM (inactive) | 19.1 µM (inactive) | 15.3 µM (inactive) | 13.3 µM (inactive) | – |
| CN1CC(C(=O)C2C(=O)c3ccccc3C2=O)C(=O)C(=O)C(C(=O)C2C(=O)c3ccccc3C2=O)C1 (stereo unspecified) | > 100 µM (inactive) | > 100 µM (inactive) | > 100 µM (inactive) | > 100 µM (inactive) | > 100 µM (inactive) | > 100 µM (inactive) | > 100 µM (inactive) | > 100 µM (inactive) | > 100 µM | > 100 µM (inactive) | – | > 100 µM (inactive) | > 100 µM (inactive) | > 100 µM (inactive) | – |
| N#Cc1ccccc1NC(=O)c1ccccc1 | – | > 100 µM (inactive) | – | > 100 µM (inactive) | > 100 µM (inactive) | > 100 µM (inactive) | > 100 µM (inactive) | > 100 µM (inactive) | > 100 µM | > 100 µM (inactive) | > 100 µM (inactive) | > 100 µM (inactive) | > 100 µM (inactive) | > 100 µM (inactive) | > 100 µM (inactive) |
| CN(CCN(C)C(=O)CCn1cc(F)c(=O)[nH]c1=O)C(=O)CCn1cc(F)c(=O)[nH]c1=O | 3.16 µM (inactive) | > 100 µM (inactive) | > 100 µM (inactive) | – | > 100 µM (inactive) | – | > 100 µM (inactive) | > 100 µM (inactive) | > 100 µM | – | > 100 µM (inactive) | 95.5 µM (inactive) | > 100 µM (inactive) | > 100 µM (inactive) | > 100 µM (inactive) |
| Cc1nn(-c2ccccc2)c2nc(N3CCOCC3)nnc12 | – | 52.8 µM (inactive) | – | > 100 µM (inactive) | 69.2 µM (inactive) | 66.1 µM (inactive) | > 100 µM (inactive) | > 100 µM (inactive) | 65 µM | 39.6 µM (inactive) | 34.7 µM (inactive) | 24.4 µM (inactive) | > 100 µM (inactive) | 51.3 µM (inactive) | > 100 µM (inactive) |
| CCOC(=O)C1C(c2ccc(Br)cc2)N(Cc2ccccc2)C(c2ccc(Br)cc2)C(C(=O)OC)S1(=O)=O (stereo unspecified) | 50.6 µM (inactive) | – | > 100 µM (inactive) | 24.9 µM (inactive) | > 100 µM (inactive) | – | 66.8 µM (inactive) | 39.6 µM (inactive) | > 100 µM | 77.1 µM (inactive) | 29.1 µM (inactive) | – | > 100 µM (inactive) | > 100 µM (inactive) | 33.6 µM (inactive) |
| CCCCCNC(=O)C1C(=O)N(CCCCC)C(=O)/C1=N\N (stereo unspecified) | 31.6 µM (inactive) | 30.1 µM (inactive) | > 100 µM (inactive) | > 100 µM (inactive) | 43.5 µM (inactive) | > 100 µM (inactive) | 83.8 µM (inactive) | 63.8 µM (inactive) | 59.2 µM | – | 61.8 µM (inactive) | 59.4 µM (inactive) | > 100 µM (inactive) | 35.2 µM (inactive) | – |
